Results on one compound are retold here after patent US11707442B2, “Antibacterial and antifungal compounds” (The General Hospital Corporation, priority 2015, dated 2023).

For the data set, the system named is S. aureus MW2 (MRSA) in neutropenic mouse thigh. In kind it is in vivo. The protocol: Deep-seated mouse thigh infection model for evaluating drug efficacy. A previously described protocol to mimic a chronic, deep-tissue infection was used with modifications (See, e.g., Conlon, B. P. et al. Activated ClpP kills persisters and eradicates a chronic biofilm infection. Nature 503, 365-370 (2013)). Six-week-old female CD1 ICR outbred mice (20-25 g) were obtained from Charles River Laboratories. To make mice neutropenic, 150 mg/kg and 100 mg/kg of cyclophosphamide were administered intraperitoneally (i.p.) at 4 days and 1 day before infection, respectively. On the day of infection, ˜10^7 cells of stationary-phase S. aureus MW2 resuspended in 50 μl saline were injected to the right thigh of each mouse. […] Control mice were injected with 200 μl of 10% Kolliphor EL/ethanol in saline i.p. every 12 h for 3 days. After euthanizing mice at 96 h post-infection, blood was collected by cardiac puncture and the infected thighs were aseptically excised. All samples were stored at 4° C. until use. Serum was analyzed for alanine aminotransferase and urea nitrogen content with commercially available kits, following the manufacturer's protocol (Pointe Scientific, Canton, Mich., USA). Thighs were homogenized in PBS and the number of MRSA in homogenates was enumerated by serial dilution and spot-plating on TSA plates, and bacterial load was recorded as CFU/g thigh tissue. […] Statistical significance among each group was analyzed by one-way ANOVA with post-hoc Tukey test using PASW Statistics 18 (SPSS Inc. Chicago, Ill., USA).
At 12 h after the last treatment, mice were euthanized and their thighs were excised and homogenized. […] Statistical differences between control and antibiotic treatment groups were analyzed by one-way ANOVA and post-hoc Tukey test (***p<0.001).
At 12 h after the last treatment, mice were euthanized, blood was collected and analyzed for ALT and BUN. […] Control and antibiotic treatment were analyzed by one-way ANOVA and post-hoc Tukey test to confirm a lack of significant difference

Consider `O=C(O)c1ccc2cc(-c3ccc(O)c(C45CC6CC(CC(C6)C4)C5)c3)ccc2c1` [CD437, 6-(4-hydroxy-3-tricyclo[3.3.1.13,7]dec-1-ylphenyl)-2-naphthalenecarboxylic acid], for which the “MRSA cells killed in thigh” value (CD437 20 mg/kg i.p. alone, every 12 h for 3 days) is ~90%. For the same compound, the “persisters killed in thigh, combination” value (CD437 20 mg/kg i.p. plus gentamicin 30 mg/kg s.c., every 12 h for 3 days) was ~99%. Also, the “serum levels of ALT or BUN” value (mouse, in vivo, ip, 20 mg/kg) was “did not have elevated serum levels”.
